The values below come from ChEMBL document CHEMBL5375954, “Discovery and Evaluation of C6-Substituted Pyrazolopyrimidine-Based Bisphosphonate Inhibitors of the Human Geranylgeranyl Pyrophosphate Synthase and Evaluation of Their Antitumor Efficacy in Multiple Myeloma, Pancreatic Ductal Adenocarcinoma, and Colorectal Cancer” (J Med Chem, 2023).

The source made the active and inactive calls. No cut-off for these calls is given here.

Series [1] deals with T1, Geranylgeranyl pyrophosphate synthase (Homo sapiens, UniProt O95749).
T1 sequence (O95749 whole entry): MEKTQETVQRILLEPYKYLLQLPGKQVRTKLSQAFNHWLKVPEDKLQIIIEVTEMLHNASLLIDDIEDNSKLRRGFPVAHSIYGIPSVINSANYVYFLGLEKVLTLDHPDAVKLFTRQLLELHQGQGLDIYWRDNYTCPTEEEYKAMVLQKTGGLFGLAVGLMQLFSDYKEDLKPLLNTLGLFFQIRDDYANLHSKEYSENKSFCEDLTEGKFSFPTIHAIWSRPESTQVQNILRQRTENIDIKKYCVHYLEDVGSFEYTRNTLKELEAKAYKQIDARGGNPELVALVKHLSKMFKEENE
In words: Inhibition of N-terminal His6 tagged human GGPPS expressed in Escherichia coli BL21(DE3) cells in presence of FPP and [14C]IPP by scintillation counting analysis.

For series [2], the system named is RPMI-8226. In words: cells. The settings on record: Homo sapiens, RPMI-8226, 72 h.
Series [3] concerns the target T2, Farnesyl pyrophosphate synthase (Homo sapiens) (UniProt P14324).
T2 sequence (whole entry): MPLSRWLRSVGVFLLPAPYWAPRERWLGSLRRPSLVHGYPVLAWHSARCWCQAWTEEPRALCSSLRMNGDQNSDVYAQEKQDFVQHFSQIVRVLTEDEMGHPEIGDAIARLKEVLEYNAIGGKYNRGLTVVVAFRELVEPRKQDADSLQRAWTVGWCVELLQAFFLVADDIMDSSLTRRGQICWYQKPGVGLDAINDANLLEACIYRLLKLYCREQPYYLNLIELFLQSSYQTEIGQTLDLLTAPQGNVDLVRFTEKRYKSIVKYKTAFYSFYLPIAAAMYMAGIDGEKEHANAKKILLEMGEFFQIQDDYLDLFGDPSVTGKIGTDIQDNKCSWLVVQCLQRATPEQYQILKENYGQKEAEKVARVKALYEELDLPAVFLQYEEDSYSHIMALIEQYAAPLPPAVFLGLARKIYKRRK
In words: Inhibition of N-terminally His6-tagged recombinant human FPPS expressed in Escherichia coli BL21(DE3) cells using […] and [14C]IPP as substrate at 1 uM preincubated for 10 mins followed by substrate addition by scintillation counting analysis relative to control.

For series [4], the system named is HCT-116. Put plainly: Antiproliferative activity against human HCT-116 cells assessed as inhibition of cell growth at 1 uM incubated for 72 hrs by MTS assay. Type of series: functional, cell-based. On the technique in general: Formazan colour is commonly taken as a measure of viable cells.
Series [5] has as its system MIA PaCa-2. In words: Antiproliferative activity against human MIA PaCa-2 cells assessed as inhibition of cell growth at 1 uM incubated for 72 hrs by MTS assay. Type of series: functional, cell-based.
Series [6] relates to RPMI-8226. In words: Induction of ER stress in human RPMI-8226 cells at 1 uM. Type of series: functional, cell-based.
The subject of the next series is KMS-28PE. Put plainly: Antiproliferative activity against human KMS-28-PE cells harboring KRAS G12A mutant at 0.1 to 10000 nM incubated for 72 hrs by MTS assay. Type of series: functional, cell-based. The following applies: dose 0.1-10000 nM.
Series [7] is described as follows: Cytotoxicity against wild type mouse normal ductal organoid [N(10128)] at 1 uM incubated for 72 hrs by CellTiter-Glo luminescence based analysis. It is filed as toxicity, tissue-based.
A further series deals with KMS-12-PE. Put plainly: Antiproliferative activity against human KMS-12-PE cells harboring wild type KRAS at 0.1 to 10000 nM incubated for 72 hrs by MTS assay. It is filed as functional, cell-based. The following applies: dose 0.1-10000 nM.
Series [8] deals with T3, Ras-related protein Rap-1A (Homo sapiens) (UniProt P62834).
T3 sequence (whole entry): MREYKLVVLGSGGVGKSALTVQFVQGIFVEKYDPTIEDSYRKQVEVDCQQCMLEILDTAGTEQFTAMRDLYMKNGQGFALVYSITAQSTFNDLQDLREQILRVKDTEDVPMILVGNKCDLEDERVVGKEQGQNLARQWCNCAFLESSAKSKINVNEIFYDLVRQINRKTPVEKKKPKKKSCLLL
In words: Inhibition of RAP-1A prenylation in human MIA PaCa-2 cells incubated for 48 hrs by Western blot analysis. It is filed as cell-based. The following applies: dose 10-1000 nM. A general note: A western blot detects proteins with antibodies after separation by electrophoresis.

In series [9] the test system is RPMI-8226. Put plainly: Antiproliferative activity against human RPMI-8226 cells harboring KRAS G12A mutant at 0.1 to 10000 nM incubated for 72 hrs by MTS assay. The following applies: dose 0.1-10000 nM. Type of series: functional, cell-based.
The species entered for another series is Mus musculus. Put plainly: Cytotoxicity against KPC mouse pancreatic cancer organoid ccmT4 at 1 uM incubated for 72 hrs by CellTiter-Glo luminescence based analysis. Type of series: functional, tissue-based.
Series [10] is described as follows: Cytotoxicity against Normal human bronchial epithelial cells assessed as inhibition of cell growth at 10 uM incubated for 72 hrs by MTS assay relative to control. Type of series: toxicity, cell-based.
The target in series [11] is T3, Ras-related protein Rap-1A (Homo sapiens). Put plainly: Inhibition of RAP-1A prenylation in human HCT-116 cells incubated for 48 hrs by Western blot analysis. Type of series: cell-based. The settings on record: dose 10-1000 nM.
The test system of a further series is JJN-3. Put plainly: Antiproliferative activity against human JJN-3 cells harboring wild type KRAS at 0.1 to 10000 nM incubated for 72 hrs by MTS assay. It is filed as functional, cell-based. The settings on record: dose 0.1-10000 nM.
Series [12] has as its system HCT-116. In words: cells. The following applies: Homo sapiens, HCT-116, 72 h.
Series [13] has as its system MIA PaCa-2. Put plainly: cells. The following applies: Homo sapiens, MIA PaCa-2, 72 h.
Series [14] in a line: Cytotoxicity against wild type mouse normal ductal organoid [N(10128)] at low nM concentrations incubated for 72 hrs by CellTiter-Glo luminescence based analysis. It is filed as toxicity, tissue-based. (ATP-based viability assays read luminescence as a measure of living cells.)
Series [15] is described as follows: Cytotoxicity against human IMR-90 cells assessed as inhibition of cell growth incubated for 72 hrs by MTS assay. Type of series: toxicity, cell-based.
A short description of series [16]: Cytotoxicity against Normal human bronchial epithelial cells assessed as inhibition of cell growth incubated for 72 hrs by MTS assay. Type of series: toxicity, cell-based.

The term IC50 denotes the concentration that inhibits the measured activity by half. Broadly, the EC50 is the concentration at which the effect is half-maximal. With `CC(C)n1ncc2c(NC(P(=O)(O)O)P(=O)(O)O)nc(-c3cccc(C(=O)Nc4ccc(C(F)(F)F)cc4)c3)nc21`, the IC50 in series [1] was 20 nM. In the series with RPMI-8226 [2], this compound registered an EC50 of over 1000 nM.

As usually defined, the inhibition is the percentage by which the read-out fell short of the control. Turning to `COc1ccc(NC(=O)c2cccc(-c3nc(NC(P(=O)(O)O)P(=O)(O)O)c4ncn(C)c4n3)c2)cc1F`, the inhibition in [3] was under 10%. For the same compound, the IC50 in series [1] was 58 nM. Also, the result in the series with HCT-116 [4] and with MIA PaCa-2 [5] was inactive. Further, the EC50 in the series with RPMI-8226 [2] is 170 nM.

In the case of `Cn1ncc2c(NC(P(=O)(O)O)P(=O)(O)O)nc(-c3cccc(C(=O)Nc4ccc(F)cc4)c3)nc21`, the IC50 in series [1] is 31 nM. In addition, in the series with RPMI-8226 [2], the EC50 turned out to be 440 nM.

On to `Cn1cnc2c(NC(P(=O)(O)O)P(=O)(O)O)nc(-c3cccc(C(=O)Nc4ccc(F)cc4)c3)nc21`, for which the IC50 in series [1] stood at 41 nM. Besides, the EC50 with RPMI-8226 [2] came out at 670 nM.

Turning to `CCn1ncc2c(NC(P(=O)(O)O)P(=O)(O)O)nc(-c3cccc(C(=O)Nc4ccc(OC)c(F)c4)c3)nc21`, the inhibition in series [3] is under 10%. Further, the IC50 in series [1] was 40 nM. The outcome in the series with HCT-116 [4] and with MIA PaCa-2 [5] was inactive. This compound also displayed a 50% effective concentration (EC50) in the series on RPMI-8226 [2] of over 1000 nM.

Take `COc1ccc(NC(=O)c2cccc(-c3nc(NC(P(=O)(O)O)P(=O)(O)O)c4cnn(C)c4n3)c2)cc1F`: the inhibition in [3] was under 10%. Besides, in [1], the IC50 was 48 nM. Further, the outcome in the series with HCT-116 [4] and in the series on MIA PaCa-2 [5] was inactive. For the same compound, a half-maximal response in the series on RPMI-8226 [2] (EC50) required 150 nM.

Consider `O=C(Nc1ccc(F)cc1)c1cccc(-c2nc(NC(P(=O)(O)O)P(=O)(O)O)c3cn[nH]c3n2)c1`, for which the half-inhibitory concentration (IC50) in [1] is 39 nM. In addition, in the series with RPMI-8226 [2], the EC50 is over 1000 nM.

With `COc1ccc(NC(=O)c2cccc(-c3nc(NC(P(=O)(O)O)P(=O)(O)O)c4ccsc4n3)c2)cc1F`, the result in the series with RPMI-8226 [6], in the series with KMS-28PE, with KMS-12-PE, in the series on RPMI-8226 [9], in the series listed under Mus musculus and with JJN-3 was Active. Besides, the Activity result in series [7] is recorded as “Non-Toxic”. For the same compound, the inhibition entry in [8] and in series [11] was “Dose-Dependent Effect” throughout. In addition, in series [10], the inhibition at 72 h, 10 µM is about 30%.

For the compound `O=C(Nc1ccc(C(F)(F)F)cc1)c1cccc(-c2nc(NC(P(=O)(O)O)P(=O)(O)O)c3ccsc3n2)c1`, the IC50 in series [1] turned out to be 12 nM. Further, the midpoint of the response with RPMI-8226 [2], the EC50, lay at 160 nM.

On to `COc1ccc(NC(=O)c2cccc(-c3nc(NC(P(=O)(O)O)P(=O)(O)O)c4cnn(C(C)C)c4n3)c2)cc1F`, for which the inhibition in series [3] was under 10%. Further, the IC50 in series [1] was determined as 41 nM. Besides, the result in the series with HCT-116 [4] and in the series on MIA PaCa-2 [5] was inactive. Besides, the EC50 in the series on RPMI-8226 [2] was over 1000 nM.

With `CC(C)n1ncc2c(NC(P(=O)(O)O)P(=O)(O)O)nc(-c3cccc(C(=O)Nc4ccc(F)cc4)c3)nc21`, the IC50 in [1] is 30 nM. The compound also had an EC50 in the series with RPMI-8226 [2] of over 1000 nM.

As to `Nc1ccn([C@@H]2O[C@H](CO)[C@@H](O)C2(F)F)c(=O)n1` [GEMCITABINE], the concentration for a half-maximal effect (EC50) was 4 nM in the series on HCT-116 [12] and 2 nM with MIA PaCa-2 [13]. Further, in [14], the Activity entry is “Toxic”.

For `O=C(Nc1ccc(C(F)(F)F)cc1)c1cccc(-c2nc(NC(P(=O)(O)O)P(=O)(O)O)c3cn[nH]c3n2)c1`, the IC50 in [1] came to 8 nM. Moreover, the half-maximal effective concentration (EC50) with RPMI-8226 [2] was over 1000 nM.

As for `COc1ccc(NC(=O)c2cccc(-c3nc(NC(P(=O)(O)O)P(=O)(O)O)c4cn[nH]c4n3)c2)cc1F`, in [3], the inhibition is 10%. Besides, in [1], the IC50 turned out to be 25 nM. For the same compound, the result in the series with HCT-116 [4] and with MIA PaCa-2 [5] was inactive. A half-maximal effect in the series with RPMI-8226 [2] (EC50) was put at 640 nM.

Turning to `CCn1cc2c(NC(P(=O)(O)O)P(=O)(O)O)nc(-c3cccc(C(=O)Nc4ccc(OC)c(F)c4)c3)nc2n1`, the IC50 in series [1] worked out at 67 nM. A half-maximal response in the series on RPMI-8226 [2] (EC50) required 552 nM.

As for `CCn1ncc2c(NC(P(=O)(O)O)P(=O)(O)O)nc(-c3cccc(C(=O)Nc4ccc(C(F)(F)F)cc4)c3)nc21`, the IC50 in [1] worked out at 30 nM. This compound returned an EC50 with RPMI-8226 [2] of over 1000 nM.

As to `Cn1cnc2c(NC(P(=O)(O)O)P(=O)(O)O)nc(-c3cccc(C(=O)Nc4ccc(C(F)(F)F)cc4)c3)nc21`, in [1], the IC50 turned out to be 13 nM. In the series with RPMI-8226 [2], this compound gave an EC50 of 510 nM.

In the case of `CCn1ncc2c(NC(P(=O)(O)O)P(=O)(O)O)nc(-c3cccc(C(=O)Nc4ccc(F)cc4)c3)nc21`, the IC50 in [1] turned out to be 29 nM. In addition, the EC50 in the series with RPMI-8226 [2] is over 1000 nM.

Regarding `COc1cccc2c1C(=O)c1c(O)c3c(c(O)c1C2=O)C[C@@](O)(C(=O)CO)C[C@@H]3O[C@H]1C[C@H](N)[C@H](O)[C@H](C)O1` [DOXORUBICIN], the half-maximal effective concentration (EC50) in the series on HCT-116 [12] was determined as 41 nM; in the series with MIA PaCa-2 [13], 130 nM. Besides, the EC50 at 72 h in series [15] came out at 360 nM; in series [16], 450 nM. Besides, the Activity result in series [7] is reported as “Toxic”. In addition, the result in the series listed under Mus musculus was Active.

Take `COc1ccc(NC(=O)c2cccc(-c3nc(NC(P(=O)(O)O)P(=O)(O)O)c4cn(C)nc4n3)c2)cc1F`: the inhibition in series [3] came out at 15%. For the same compound, the IC50 in [1] worked out at 56 nM. For the same compound, the EC50 in the series on RPMI-8226 [2] was 520 nM.

As to `O=C(Nc1ccc(F)cc1)c1cccc(-c2nc(NC(P(=O)(O)O)P(=O)(O)O)c3ccsc3n2)c1`, the IC50 in series [1] was 18 nM. Moreover, in the series on RPMI-8226 [2], the EC50 is 120 nM.
